Reference: patent US9309242B2, “Substituted pyrido[2,3-b]pyrazines as FGFR kinase inhibitors” (priority 2011, dated 2016)

Target: T1, Ba/F3-Flt3-transfected cells (Homo sapiens, UniProt P36888, cells depend on it, form not given)
T1 construct: BAF3-FLT3 (MIN IL3) pIC50; other: minus IL3
T1 sequence (P36888 1-993): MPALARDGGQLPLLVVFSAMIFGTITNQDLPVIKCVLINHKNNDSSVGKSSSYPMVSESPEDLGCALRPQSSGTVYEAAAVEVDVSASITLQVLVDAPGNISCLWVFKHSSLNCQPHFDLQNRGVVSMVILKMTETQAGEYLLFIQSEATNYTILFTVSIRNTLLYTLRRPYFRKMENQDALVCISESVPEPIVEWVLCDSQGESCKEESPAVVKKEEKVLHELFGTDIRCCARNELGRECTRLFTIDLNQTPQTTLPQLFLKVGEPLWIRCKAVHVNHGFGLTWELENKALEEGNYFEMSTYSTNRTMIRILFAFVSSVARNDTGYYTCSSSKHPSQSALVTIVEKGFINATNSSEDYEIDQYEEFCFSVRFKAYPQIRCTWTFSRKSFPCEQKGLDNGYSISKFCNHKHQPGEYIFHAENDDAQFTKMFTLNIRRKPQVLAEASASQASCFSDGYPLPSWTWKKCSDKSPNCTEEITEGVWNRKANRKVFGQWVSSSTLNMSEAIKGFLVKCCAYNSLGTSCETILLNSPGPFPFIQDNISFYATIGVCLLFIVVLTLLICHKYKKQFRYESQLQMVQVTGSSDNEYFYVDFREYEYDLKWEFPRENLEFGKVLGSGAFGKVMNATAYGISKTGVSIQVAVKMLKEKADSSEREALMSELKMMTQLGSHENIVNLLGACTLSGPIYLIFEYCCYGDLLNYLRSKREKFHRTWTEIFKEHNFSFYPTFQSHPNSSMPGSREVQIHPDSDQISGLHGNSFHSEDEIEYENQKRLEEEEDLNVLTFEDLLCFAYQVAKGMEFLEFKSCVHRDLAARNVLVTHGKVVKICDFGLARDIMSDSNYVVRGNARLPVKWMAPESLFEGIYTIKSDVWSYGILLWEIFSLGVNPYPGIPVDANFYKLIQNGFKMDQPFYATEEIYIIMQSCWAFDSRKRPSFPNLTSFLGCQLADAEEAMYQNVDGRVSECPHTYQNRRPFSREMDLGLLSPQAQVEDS
Assay: Ba/F3-Flt3 (minus IL3) cellular proliferation assay, Alamar Blue
Format: cell-based
Protocol: Ba/F3-Flt3 (Minus IL3 or Plus IL3) (Cellular Proliferation Assay)
In a 384 well plate, 100 nl of compound dilution in DMSO was sprayed before adding 50 μl cell culture medium (phenol red free RPMI-1640, 10% FBS, 2 mM L-Glutamine and 50 μg/ml Gentamycin) containing 20000 cells per well of Ba/F3-Flt3-transfected cells. Cells were put in an incubator at 37° C. and 5% CO2. After 24 hours, 10 μl of Alamar Blue solution (0.5 mM K3Fe(CN)6, 0.5 mM K4Fe(CN)6, 0.15 mM Resazurin and 100 mM Phosphate Buffer) was added to the wells, incubated for 4 hours at 37° C. and 5% CO2 before RFU's (Relative Fluorescence Units) (ex. 540 nm., em. 590 nm.) were measured in a fluororescence plate reader. […]

Structure (SMILES): COc1cc(OC)c(F)c(N(Cc2cnccn2)c2ccc3ncc(-c4cnn(C)c4)nc3n2)c1F [Compound 10]
- BAF3-FLT3 (MIN IL3) pIC50: 5.12

Structure (SMILES): CNCCn1/c(=N/c2cc(OC)cc(OC)c2F)ccc2ncc(-c3cnn(C)c3)nc21 [Compound 38]
- BAF3-FLT3 (MIN IL3) pIC50: <5

Structure (SMILES): COc1cc(OC)c(F)c(N(CCCO)c2ccc3ncc(-c4cnn(C)c4)nc3n2)c1F (single isomer, unassigned) [Compound 16]
- BAF3-FLT3 (MIN IL3) pIC50: 5.18

Structure (SMILES): Cn1cc(-c2cnc3ccc(N(Cc4ncc[nH]4)c4cc(F)cc(F)c4)nc3n2)cn1 [Compound 27]
- BAF3-FLT3 (MIN IL3) pIC50: <5

Structure (SMILES): COc1cc(OC)c(F)c(N(CCO)c2ccc3ncc(-c4cnn(C)c4)nc3n2)c1F [Compound 20]
- BAF3-FLT3 (MIN IL3) pIC50: 5.23

Structure (SMILES): COCC(O)CN(c1cc(OC)cc(OC)c1)c1ccc2ncc(-c3cnn(C)c3)nc2n1 (centres unmarked) [Compound 7]
- BAF3-FLT3 (MIN IL3) pIC50: <5

Structure (SMILES): COc1cc(OC)cc(N(CC#Cc2ncccc2OC)c2ccc3ncc(-c4cnn(C)c4)nc3n2)c1 [Compound 26]
- BAF3-FLT3 (MIN IL3) pIC50: <5

Structure (SMILES): COc1cc(OC)c(F)c(N(Cc2ncccn2)c2ccc3ncc(-c4cnn(C)c4)nc3n2)c1 [Compound 9]
- BAF3-FLT3 (MIN IL3) pIC50: <5

Structure (SMILES): CNCCN(c1ccc2ncc(-c3cnn(C)c3)nc2n1)c1cc(OC)cc(OC)c1F [Compound 39]
- BAF3-FLT3 (MIN IL3) pIC50: <5

Structure (SMILES): COc1cc(OC)c(F)c(N(Cc2cn(S(=O)(=O)N(C)C)cn2)c2ccc3ncc(-c4cnn(C)c4)nc3n2)c1 [Compound 36]
- BAF3-FLT3 (MIN IL3) pIC50: <5

Structure (SMILES): COc1cc(/N=c2\ccc3ncc(-c4cnn(C)c4)nc3n2CCNC(C)C)c(F)c(OC)c1 [Compound 37]
- BAF3-FLT3 (MIN IL3) pIC50: <5
